In patent publication US20170144969A1, “ANT[…], METHOD FOR PRODUCTION AND USES THEREOF” (priority 2014, published 2017):
Values joined by “and” are separate entries in the source; they are usually repeats but may differ in a detail not shown here. Equal values may be shown once. Read-outs that look alike come from different tables or passages of the source.

Tests used:
[1] = tested on: vancomycin resistant Enterococcus faecium (VRE) (ATCC 51559); experiment: Minimum Inhibitory Concentration, micro-dilution broth; assay type: cell-based; conditions: 24 h, 37° C.
E. coli (MTCC 443) = experiment: as above; assay type: cell-based; conditions: 24 h, 37° C.
S. aureus (MTCC 737) = experiment: as above; assay type: cell-based, Staphylococcus aureus; conditions: 37° C.
[2] = tested on: Enterococcus faecium (ATCC 19634); experiment: as above; assay type: cell-based; conditions: 24 h, 37° C., read-out: Minimum Inhibitory Concentration E. faceium
MRSA (ATCC 33591) = experiment: as above; assay type: cell-based, methicillin-resistant S. aureus; conditions: 24 h, 37° C.
[3] = tested on: Klebsiella pneumoniae (ATCC 700603); experiment: as above; assay type: cell-based; conditions: 24 h, 37° C.
human Red Blood Cells = experiment: Haemolytic activity; conditions: for HC50: human RBCs, 1 h at 37° C.; for hemolysis: at 1000 µM concentration

Row | Compound | MIC [1] | MIC (E. coli (MTCC 443)) [µM] | MIC (S. aureus (MTCC 737); 24 h) [µM] | MIC [2] [µM] | Minimum Inhibitory Concentration MRSA (MRSA (ATCC 33591)) | Minimum Inhibitory Concentration K. pneumonie [3] [µM] | HC50 (human Red Blood Cells; Table 3) | hemolysis (human Red Blood Cells) | MIC (E. coli (MTCC 443); Escherichia coli, MTCC443) [µM] | MIC (S. aureus (MTCC 737); Staphylococcus aureus, MTCC737, 24 h) [µM] | MIC ([2]; Enterococcus faecium, ATCC19634, 24 h) [µM] | HC50 (human Red Blood Cells; Table 6) [µM]
1 | CCCCCCCCCC(=O)N(CCCNC(=O)[C@@H](N)Cc1ccccc1)CCCNC(=O)[C@@H](N)Cc1ccccc1.O=C(O)C(F)(F)F.O=C(O)C(F)(F)F [Compound 1, N,N-bis-[{3-(^LPhe)amino}propyl]decanamide bis(trifluoroacetate)] | 17 µM | 24 | 19 | 36 | 25 µM | 70 | 232 | – | – | – | – | –
2 | CCCCCCCCCCCCCC(=O)N(CCCNC(=O)[C@@H](N)Cc1ccccc1)CCCNC(=O)[C@@H](N)Cc1ccccc1.O=C(O)C(F)(F)F.O=C(O)C(F)(F)F [Compound 3, N,N-bis-[{3-(^LPhe)amino}propyl]tetradecanamide bis(trifluoroacetate)] | 2.8 µM | 16 | 7 | 5.2 | 4.8 µM | 18 | 144 | – | – | – | – | –
3 | CCCCCCCCCCCCCCCC(=O)N(CCCNC(=O)[C@@H](N)Cc1ccccc1)CCCNC(=O)[C@@H](N)Cc1ccccc1.O=C(O)C(F)(F)F.O=C(O)C(F)(F)F [Compound 4, N,N-bis-[{3-(^LPhe)amino}propyl]hexadecanamide bis(trifluoroacetate)] | 3 µM | 225 | 10 | 8.5 | 5.2 µM | 70 | 83 | – | – | – | – | –
4 | CCCCCCCCCCCCCCCCCC(=O)N(CCCNC(=O)[C@@H](N)Cc1ccccc1)CCCNC(=O)[C@@H](N)Cc1ccccc1.O=C(O)C(F)(F)F.O=C(O)C(F)(F)F [Compound 5, N,N-bis-[{3-(^LPhe)amino}propyl]octadecanamide bis(trifluoroacetate)] | 3.2 µM | 270 | 12 | 11 | 5.6 µM | 95 | 71 | – | – | – | – | –
5 | CCCCCCCCCCCCCC(=O)N(CCCNC(=O)[C@@H](N)Cc1c[nH]c2ccccc12)CCCNC(=O)[C@@H](N)Cc1c[nH]c2ccccc12.O=C(O)C(F)(F)F.O=C(O)C(F)(F)F [Compound 7, N,N-bis-[{3-(^LTrp)amino}propyl]tetradecanamide bis(trifluoroacetate)] | 2.7 µM | 39 | 2.5 | 2.5 | – | – | – | – | – | – | – | –
6 | CCCCCCCCCCCCCCCC(=O)N(CCCNC(=O)[C@@H](N)Cc1c[nH]c2ccccc12)CCCNC(=O)[C@@H](N)Cc1c[nH]c2ccccc12.O=C(O)C(F)(F)F.O=C(O)C(F)(F)F [Compound 8, N,N-bis-[{3-(^LTrp)amino}propyl]hexadecanamide bis(trifluoroacetate)] | 7 µM | >257 | 6.5 | 5.4 | – | – | – | – | – | – | – | –
7 | CCCCCCCCCC(=O)N(CCCNC(=O)[C@@H](N)CCCCN)CCCNC(=O)[C@@H](N)CCCCN.O=C(O)C(F)(F)F.O=C(O)C(F)(F)F [Compound 9, N,N-bis-[{3-(^LLys)amino}propyl]decanamide bis(trifluoroacetate)] | 58 µM | 40 | 53 | 60 | 65 µM | 98 | >1000 | did not show any hemolytic | – | – | – | –
8 | CCCCCCCCCCCC(=O)N(CCCNC(=O)[C@@H](N)CCCCN)CCCNC(=O)[C@@H](N)CCCCN.O=C(O)C(F)(F)F.O=C(O)C(F)(F)F [Compound 10, N,N-bis-[{3-(^LLys)amino}propyl]dodecanamide bis(trifluoroacetate)] | 30 µM | 14 | 37 | 32 | 45 µM | 40 | >1000 | did not show any hemolytic | – | – | – | –
9 | CCCCCCCCCCCCCCCC(=O)N(CCCNC(=O)[C@@H](N)CCCCN)CCCNC(=O)[C@@H](N)CCCCN.O=C(O)C(F)(F)F.O=C(O)C(F)(F)F [Compound 12, N,N-bis-[{3-(^LLys)amino}propyl]hexadecanamide bis(trifluoroacetate)] | 1 µM | 5.4 | – | 1.1 | 4.8 µM | 6.5 | 264 | – | – | – | – | –
10 | CCCCCCCCCCCCCCCCCC(=O)N(CCCNC(=O)[C@@H](N)CCCCN)CCCNC(=O)[C@@H](N)CCCCN.O=C(O)C(F)(F)F.O=C(O)C(F)(F)F [Compound 13, N,N-bis-[{3-(^LLys)amino}propyl]octadecanamide bis(trifluoroacetate)] | 2.2 µM | 8.4 | 7.7 | – | 14 µM | 7.5 | 108 | – | – | – | – | –
11 | CCCCCCCCCCCCCC(=O)N(CCCNC(=O)[C@@H](N)CCCN)CCCNC(=O)[C@@H](N)CCCN.O=C(O)C(F)(F)F.O=C(O)C(F)(F)F [Compound 14, N,N-bis-[{3-(^LOrn)amino}propyl]tetradecanamide bis(trifluoroacetate)] | 5.3 µM | 6.6 | 7.9 | 5.2 | – | – | – | – | – | – | – | –
12 | CCCCCCCCCCCCCCCC(=O)N(CCCNC(=O)[C@@H](N)CCCN)CCCNC(=O)[C@@H](N)CCCN.O=C(O)C(F)(F)F.O=C(O)C(F)(F)F [Compound 15, N,N-bis-[{3-(^LOrn)amino}propyl]hexadecanamide bis(trifluoroacetate)] | 3 µM | 5.2 | 6.4 | 3.2 | – | – | – | – | – | – | – | –
13 | CCCCCCCCCCCCCCCC(=O)N(CCCNC(=O)[C@H](N)CCCCN)CCCNC(=O)[C@H](N)CCCCN.O=C(O)C(F)(F)F.O=C(O)C(F)(F)F [Compound 17, N,N-bis-[{3-(^DLys)amino}propyl]hexadecanamide bis(trifluoroacetate)] | 2.2 µM | 4.8 | 3.9 | 2.7 | – | – | – | – | – | – | – | –
14 | N[C@@H](Cc1ccccc1)C(=O)NCCCN(CCCNC(=O)[C@@H](N)Cc1ccccc1)C(=O)Cc1cccc2ccccc12 [Compound 21, N,N-bis-[{3-(^LPhe)amino}propyl]α-naphthylacetamide bis(trifluoroacetate)] | > 304 µM | – | – | – | – | – | – | – | > 304 | > 304 | > 304 | –
15 | N[C@@H](Cc1ccccc1)C(=O)NCCCNCCCNC(=O)[C@@H](N)Cc1ccccc1.O=C(O)C(F)(F)F.O=C(O)C(F)(F)F.O=C(O)C(F)(F)F [Compound 22, N^1-^LPhe-N^3-[{3-(^LPhe)amino}propyl]propane-1,3-diamine tris(trifluoroacetate)] | >250 µM | >250 | >250 | >250 | >250 µM | >250 | – | – | – | – | – | –
16 | NCCCC[C@H](N)C(=O)NCCCNCCCNC(=O)[C@@H](N)CCCCN.O=C(O)C(F)(F)F.O=C(O)C(F)(F)F.O=C(O)C(F)(F)F [Compound 23, N^1-^LLys-N^3-[{3-(^LLys)amino}propyl]propane-1,3-diamine tris(trifluoroacetate)] | >250 µM | >250 | >250 | >250 | >250 µM | >250 | – | – | – | – | – | –
17 | CCCCCCCCCCCCCCCC(=O)N(CCCNC(=O)[C@@H](N)[C@@H](C)CC)CCCNC(=O)[C@@H](N)[C@@H](C)CC.O=C(O)C(F)(F)F.O=C(O)C(F)(F)F [Compound 53, N,N-bis-[{3-(^LIle)amido}propyl]hexadecanamide bis(trifluoroacetate)] | 4.2 µM and 2.6 µM | 26 | 4 | 3 | 2.6 µM and 2.7 µM | – | – | – | – | – | – | 60
18 | CCCCCCCCCCCCCC(=O)N(CCCNC(=O)[C@@H](N)CC(C)C)CCCNC(=O)[C@@H](N)CC(C)C.O=C(O)C(F)(F)F.O=C(O)C(F)(F)F [Compound 55, N,N-bis-[{3-(^LLeu)amido}propyl]tetradecanamide bis(trifluoroacetate)] | – | 5.4 | 3.6 | 4.2 | – | – | – | – | – | – | – | 118
19 | N^1-octyl-N^3-(Boc-^LAla)-N^1-[3-{(Boc-^LAla)amino}propyl]propane-1,3-diamine tris(trifluoroacetate) [Compound 19] | – | 343 | 313 | – | – | – | – | – | – | – | – | –
20 | N^1-octyl-N^3-(Boc-^LLys)-N^1-[3-{(Boc-^LLys)amino}propyl]propane-1,3-diamine tris(trifluoroacetate) [Compound 20] | – | 133 | 86 | – | – | – | – | – | – | – | – | –
21 | N^1-octyl-N^3-(Boc-^LPhe)-N^1-[3-{(Boc-^LPhe)amino}propyl]propane-1,3-diamine tris(trifluoroacetate) [Compound 18] | – | 68 | 38 | – | – | – | – | – | – | – | – | –
